Measurements: patent US8153581B2, “Process for producing an injectable medicament preparation” (KTB Tumorforschungs GmbH, priority 1999, dated 2012)
Read-outs that look alike come from different tables or passages of the source.

How the values were obtained:
[1] = biological target: T1, albumin (Homo sapiens, UniProt P02768); conditions: 37° C.
Description: In this experiment, the plasma sample was separated, after the incubation had taken place, on a POROS®-20 anion exchange column (the proteins were detected at 254 nm while the anthracycline was detected by fluorescence).
1.4 mg of 2 (Mr 1374) are dissolved, at room temperature, in 1.0 ml of phosphate buffer (0.15 M NaCl, 0.004 M sodium phosphate, pH 6.5) (1000 μm solution).

[2] = system: RENCA, renal cell carcinoma; test: RENCA (renal cell carcinoma) model, antitumour activity; type: in vivo, Balc/c mice
Description: (§1) The biological data listed below clarify the in vivo activity of DOXO-HYD as compared with that of free doxorubicin: in what is termed the RENCA (renal cell carcinoma)-model, doxorubicin and DOXO-HYD were compared with each other, at approximately equitoxic doses, as regards their antitumour activity (intravenous therapy 10 days after injecting about 1 million kidney carcinoma cells into the left kidney).
(§2) Animals: Balc/c mice, female; Tumour: RENCA, renal cell carcinoma
(§3) Therapy: Intravenous (i.v.) on day (d) 10, 13, 17 and 20, end of experiment on d24

[3] = RENCA model, body weight change; type: in vivo, Balc/c mice; conditions: i.v. on d 10, 13, 17 and 20; approximately equitoxic doses
Description: as §1, §2, §3

[4] = biological target: T1, albumin; test: Incubation with human plasma, gel filtration chromatography (Superdex 200); type: in vitro ADME; set-up: with 1.0 ml of human plasma; from tissue; host or cells: human blood plasma; conditions: 250 μl of 100 μM solution with 1.0 ml human plasma, 5 minutes
[5] = as compared with the control group and the doxorubicin-treated group, 4 × 20 mmol/kg i.v.

T1 sequence (P02768 25-609): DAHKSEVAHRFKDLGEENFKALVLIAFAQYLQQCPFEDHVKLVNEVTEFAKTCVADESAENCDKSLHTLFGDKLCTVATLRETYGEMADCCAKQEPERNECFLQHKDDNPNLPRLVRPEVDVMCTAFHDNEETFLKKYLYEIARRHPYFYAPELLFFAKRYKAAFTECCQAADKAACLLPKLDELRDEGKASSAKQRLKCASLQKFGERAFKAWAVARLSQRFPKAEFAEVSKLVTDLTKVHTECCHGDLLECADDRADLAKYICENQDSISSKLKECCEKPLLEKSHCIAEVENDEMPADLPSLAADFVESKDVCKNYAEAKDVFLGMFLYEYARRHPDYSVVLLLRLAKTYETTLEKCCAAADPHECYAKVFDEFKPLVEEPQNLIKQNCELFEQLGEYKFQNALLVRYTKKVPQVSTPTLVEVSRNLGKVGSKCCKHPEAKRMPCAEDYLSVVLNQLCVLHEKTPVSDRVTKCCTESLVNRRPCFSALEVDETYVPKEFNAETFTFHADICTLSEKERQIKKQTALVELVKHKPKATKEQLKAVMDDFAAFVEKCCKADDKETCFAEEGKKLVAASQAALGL

For `COc1cccc2c1C(=O)c1c(O)c3c(c(O)c1C2=O)C[C@@](O)(C(CO)=NNC(=O)CCCCCN1C(=O)C=CC1=O)C[C@@H]3O[C@H]1C[C@H](N)[C@H](O)[C@H](C)O1` [DOXO-EMCH, 6-maleimidocaproic acid hydrazone derivative of doxorubicin], the “binding to albumin in human plasma” value ([1]; 250μ of 2000 μM solution with 1.0 ml human plasma, 30 seconds) was “majority of the DOXO-EMCH is bound to albumin”.
With `COc1cccc2c1C(=O)c1c(O)c3c(c(O)c1C2=O)C[C@@](O)(/C(CO)=N/NC(=O)Cc1ccc(N2C(=O)C=CC2=O)cc1)C[C@@H]3OC1CC(C)C(O)C(N)C1.Cl` (some centres unmarked) [DOXO-HYD] the antitumour activity ([2]; RENCA model, i.v. d 10, 13, 17, 20, 4 × 20 mmol/kg, end d24) was “very good antitumour activity”, the kidney tumour volume [2, 5] was “marked reduction” and the “number of lung metastases” value [2, 5] was “marked reduction”. For the same compound, the “Average decrease in body weight (%) d 1-24” value [3] was −15% and the “covalent binding to albumin in human blood plasma” value ([1]; human blood plasma, 5 minutes of incubation) was “most of the DOXO-HYD is covalently bonded to the albumin”.
In the case of `COc1cccc2c1C(=O)c1c(O)c3c(c(O)c1C2=O)C[C@@](O)(C(=O)CO)C[C@@H]3O[C@H]1C[C@H](N)[C@H](O)[C@H](C)O1` [Doxorubicin, doxorubicin, reference compound], the “Average decrease in body weight (%) d 1-24” value [3] is reported as −15%.
For `O=C(O)c1cc(N2C(=O)C=CC2=O)ccc1-c1c2ccc(=O)cc-2oc2cc(O)ccc12` [fluoresceinmaleimide], the “binding to albumin in human plasma” value [4] was “majority of the fluoresceinmaleimide is bound to albumin”.
